The subject of the assay is passive cutaneous reaction mediated by Ig G antibodies. As to the kind of experiment: Passive cutaneous anaphylaxis in the rat (PCR), Ig G mediated, inhibition after oral administration. It counts as in vivo. The note with it: male Wistar rats. As to the method:
Passive cutaneous anaphylaxis in the rat (PCR)
Passive cataneous anaphylaxis in the rat was carried out in male Wistar rats weighing 180-200 g sensitized by intradermal injection into four sites on shaved backs so as to produce a passive cutaneous reaction mediated by Ig G antibodies (a 4 hour sensitization following injection of antiserum heated at 56° C. for one hour). Antigen challenge was carried out in the same way; 1 mg of ovalbumen together with 0.5 ml of 1% Evans blue dye solution was injected intravenously and 30 minutes later, the animals were killed and the severity and area of each blue spot was scored when viewed from the reverse side of the skin.

This passage reports inhibition in vivo results from patent US4472401A, “Pyrimido-quinoxalines having antiallergic properties” (Roussel Uclaf, priority 1981, dated 1984).

Structures are written as SMILES.

A word on the inhibition in vivo: it is the change of the read-out against control, counted positive when it falls.

Molecule `CCOC(=O)c1cnc2n(c1=O)-c1ccccc1NC2` [Example 1, Ethyl 5,6-dihydro-1-oxo-1H-pyrimido [1,2-a] quinoxaline-2-carboxylate] had an inhibition in vivo at 1 mg/kg of 23% and an inhibition in vivo at 10 mg/kg of 51%.

`CCOC(=O)c1cnc2n(c1=O)-c1ccccc1N(C(=O)OCC)C2` [Example 2, Diethyl 5,6-dihydro-1-oxo-1H-pyrimido [1,2-a] quinoxaline-2,6-dicarboxylate] yielded an inhibition in vivo at 1 mg/kg of 31% and an inhibition in vivo at 10 mg/kg of 34.9%.

In turn, `CCOC(=O)c1cnc2n(c1=O)-c1ccccc1N(C(C)=O)C2` [Example 3, Ethyl 6-acetyl-5,6-dihydro-1-oxo-1H-pyrimido [1,2-a] quinoxaline-2-carboxylate] gave an inhibition in vivo at 1 mg/kg of 18.5% and an inhibition in vivo at 10 mg/kg of 33.3%.

Molecule `CCOC(=O)c1cnc2n(c1=O)-c1ccccc1N(C(=O)C(C)C)C2` [Example 4] returned an inhibition in vivo at 0.1 mg/kg of 4.1%, an inhibition in vivo at 1 mg/kg of 16% and an inhibition in vivo at 10 mg/kg of 8.9%.

As for `CCOC(=O)c1cnc2n(c1=O)-c1ccccc1N(C(=O)C1CC1)C2` [Example 5], the inhibition in vivo at 1 mg/kg turned out to be 23% and the inhibition in vivo at 10 mg/kg is 33.3%.

Turning to `CCOC(=O)c1cnc2n(c1=O)-c1ccccc1N(C(=O)c1ccccc1)C2` [Example 6, ethyl 6-benzoyl-1-oxo-5,6-dihydro-1H-pyrimido [1,2,-a] quinoxaline-2-carboxylate], at 1 mg/kg the inhibition in vivo was 23% and the inhibition in vivo at 10 mg/kg came out at 43%.

Turning to `CCOC(=O)c1cnc2n(c1=O)-c1ccccc1N(C(=O)CC)C2` [Example 7], testing at 1 mg/kg gave an inhibition in vivo of 8.2% and the inhibition in vivo at 10 mg/kg was 5.8%.

The molecule `CCOC(=O)c1cnc2n(c1=O)-c1ccccc1N(C(=O)C1CCCC1)C2` [Example 8] registered an inhibition in vivo at 1 mg/kg of 5.4% and an inhibition in vivo at 10 mg/kg of 14.8%.

For `CCOC(=O)c1cnc2n(c1=O)-c1ccccc1N(C=O)C2` [Example 13, Ethyl 5,6-dihydro-6-formyl-1-oxo-1H-pyrimido [1,2-a]quinoxaline-2-carboxylate], the inhibition in vivo at 0.1 mg/kg amounted to 0.6%, at 1 mg/kg the inhibition in vivo was 4.1% and 10 mg/kg produced 12.4% inhibition in vivo.

Regarding `CCOC(=O)c1cnc2n(c1=O)-c1ccccc1N(C(=O)Nc1ccccc1)C2` [Example 14, Ethyl 5,6-dihydro-1-oxo-6-phenylcarbamoyl-1H-pyrimido [1,2-a] quinoxaline-2-carboxylate], the inhibition in vivo at 1 mg/kg was 17.6% and the inhibition in vivo at 10 mg/kg turned out to be 15.2%.

The molecule `CCOC(=O)c1cnc2n(c1=O)-c1ccccc1N(C)C2` [Example 15, Ethyl 5,6-dihydro-6-methyl-1-oxo-1H-pyrimido [1,2-a] quinoxaline-2-carboxylate] displayed an inhibition in vivo at 0.1 mg/kg of 7.7%, an inhibition in vivo at 1 mg/kg of 7.7% and an inhibition in vivo at 10 mg/kg of 30.2%.
